Assay results from article PMC10514447 (The Journal of Biological Chemistry, 2023).

Tested on: GCGR ECD
Assay: TIRF-based smFRET of GCGR ECD dynamics in the presence of ligands
Parameters: species or system human
Conditions: for smFRET histogram peak location (FRET efficiency), green peak / smFRET histogram peak location (FRET efficiency), red peak: 64 molecules (glucagon), 86 (MK0893)
Description: We used smFRET to examine the conformational behavior of the GCGR ECD. smFRET is a well-established technique for studying the conformational dynamics of biomolecules at the single molecule level ([38], [39]), as it is sensitive to changes in distances in vitro and in cells ([40]). First, we specifically expressed and purified a GCGR with two surface-exposed cysteines at positions 49 (Cys49) of the ECD and 287 (Cys287) of the extracellular side of helix IV (Fig. S4B). These two cysteines were site-specifically labeled with a FRET donor (Alexa Fluor 555) and a FRET acceptor (Alexa Fluor 647). The efficiency of energy transfer will report the proximity between the donor and acceptor fluorophores and any changes in that distance ([41], [42]). To view receptors under smFRET, the doubly labeled GCGR was surface-immobilized on a PEG-passivated quartz microscope slide using a biotin–streptavidin interaction, as shown in Figure 1A. A biotinylated anti-FLAG antibody was used to capture the FLAG-tagged GCGR (Fig. 1A). A 532 nm laser was used to excite the donor fluorophore by creating the evanescent field from the total internal reflection of the laser beam (Fig. 1A). The emission signals from the donor and acceptor fluorophores were detected by an electron-multiplied back-illuminated CCD camera. […] A control experiment was performed to test the specific immobilization of GCGR–micelle using a biotinylated antibody to a PEG-passivated quartz surface (Fig. S5A). […] Single-molecule fluorescence time trajectories were assessed and analyzed using custom software written in MATLAB.
Single-molecule fluorescence data were recorded using a customized prism-based total internal reflection fluorescence imaging system based on an inverted IX73 microscope (Olympus) equipped with a X60 objective (Olympus, 1.49 numerical aperture, water) as described in earlier publications ([47], [48], [49]). Quartz microscope slides (G. Finkenbeiner) and coverslips (Fisher Scientific #1254588) were cleaned and passivated with polyethylene glycol (m-PEG-SVA) and 3% (w/w) biotin-PEG-SVA (Laysan Bio) to prevent nonspecific protein adsorption, as previously described ([30]). A sample chamber was prepared using double-sided tape (Scotch) on PEGylated slides and coverslips ([48]). The sample chamber was first coated with 0.02 mg/ml NeutrAvidin (ThermoFisher Scientific #PI31000) and washed with T50 buffer (10 mM Tris, pH 7.4, 50 mM NaCl). A […] biotin-conjugated anti-FLAG antibody (GenScript #A01429) was injected and incubated for 20 min, followed by washing with the imaging buffer (25 mM HEPES pH 7.5, 150 mM NaCl, 2 mM Trolox, 0.05% DDM, 0.01% CHS) to remove unbound biotinylated anti-FLAG antibody. The GCGR sample was diluted in an imaging buffer, introduced into the sample chamber, and incubated for 30 min. The sample chamber was washed extensively with an imaging buffer to remove any unbound receptors. Finally, an oxygen scavenging system, 5 mM protocatechuic acid (Sigma #37580), and 3 U/ml protocatechuate-3,4-dioxygenase (Oriental Yeast) ([50]) in the imaging buffer were applied before total internal reflection fluorescence illumination. The sample was excited at […] (CrystaLaser), and emission intensities from both donor and acceptor fluorophores were collected on an EMCCD camera (Andor Technology) with 100 ms integration time using a custom single-molecule data acquisition program ([48]). All single-molecule measurements were performed at room temperature. Single-molecule time trajectories were extracted using scripts written in IDL software (Harris Geospatial Solutions, Inc).

[1] = GCGR labeled Alexa Fluor 555/647 at Cys49 and Cys287, DDM-CHS micelle, room temperature, Gaussian fit
[2] = Gaussian fit of smFRET histogram, ligand-bound GCGR
[3] = calculated from peak centre with Förster equation, R0 51 Å, glucagon-bound GCGR

Compound | smFRET histogram peak location (FRET efficiency), green peak [1] | smFRET histogram peak location (FRET efficiency), red peak [1] | smFRET histogram peak width, green peak [2] | smFRET histogram peak width, red peak [2] | smFRET histogram relative peak area, green peak [2] | smFRET histogram relative peak area, red peak [2] | effect on the FRET distribution relative to apo-GCGR (saturating concentration of antagonist, histogram from 86 molecules) | smFRET histogram peak location (FRET efficiency), blue peak (GCGR labeled Alexa Fluor 555/647 at Cys49 and Cys287, DDM-CHS micelle, room temperature, Gaussian fit, 64 molecules) | smFRET histogram peak width, blue peak [2] | smFRET histogram relative peak area, blue peak [2] | calculated distance, 0.53 FRET state [3] | calculated distance, 0.67 FRET state [3] | distance between the two fluorophores, 0.86 FRET state [3]
COc1ccc2cc(-c3cc(-c4cc(Cl)cc(Cl)c4)nn3[C@@H](C)c3ccc(C(=O)NCCC(=O)O)cc3)ccc2c1 [MK0893] | 0.91 | 0.75 | 0.09 | 0.19 | 47% | 53% | no effect on the FRET distribution relative to the apo-GCGR |  |  |  |  |  | 
glucagon | 0.86 | 0.67 | 0.14 | 0.11 | 59% | 17% |  | 0.53 | 0.24 | 24% | 50.0 Å | 45.3 Å | 37.7 Å
